Results from article PMC8235719, “New RAD51 Inhibitors to Target Homologous Recombination in Human Cells” (Genes, 2021).
≈ marks a conversion by molar mass, not a printed value. Read-outs that look alike come from different tables or passages of the source. One block for each molecule: values may come before it.

Experiments:
[1] = test system: HR in human U-2 OS IndDR-GFP cells; experiment: Inducible I-SceI DR-GFP assay (IndDR-GFP), inhibition of HR; type: cell-based; conditions: Homo sapiens, U2OS; U-2 OS IndDR-GFP cells; 24 h with compound; ± SD; read-out: IC50, efficiency of HR inhibition in IndDR-GFP assay
Method: Exponentially growing U-2 OS IndDR-GFP cells were seeded at a density of 2 × 10^5 cells/well into 6-well plates with DMEM media containing 80 µg/mL G418 and indicated concentrations of RAD51i(s). For I-SceI induced samples, the media were supplemented with 0.5 µM Shield1 (Clontech, Mountain View, CA, USA) with 100 nM triamcinolone acetonide (Sigma, St. Louis, MO, USA). After 24 h of incubation, the media were removed, cells were washed with the DMEM, and the incubation continued for 48 h in DMEM containing 100 units/mL penicillin, 100 µg/mL streptomycin, and 80 µg/mL G418. Then, cells were trypsinized, trypsin solution was neutralized with an equal volume of media, and 10% formaldehyde solution in PBS was added for fixation to reach a final concentration of formaldehyde of 3.3%. The yield of GFP-positive cells indicative of HR activity was measured by flow cytometry with the Guava easyCyte system, and the data were analyzed with the InCyte program (Millipore; Burlington, VT, USA).

HsRAD51 [2] = target: T1, HsRAD51 (Homo sapiens, UniProt Q06609); experiment: Surface plasmon resonance (SPR) binding to immobilized RAD51; conditions: 25 °C, equilibrium analysis, ± SD, read-out: KD, equilibrium dissociation constant of direct binding to hRAD51
T1 sequence (Q06609 1-339): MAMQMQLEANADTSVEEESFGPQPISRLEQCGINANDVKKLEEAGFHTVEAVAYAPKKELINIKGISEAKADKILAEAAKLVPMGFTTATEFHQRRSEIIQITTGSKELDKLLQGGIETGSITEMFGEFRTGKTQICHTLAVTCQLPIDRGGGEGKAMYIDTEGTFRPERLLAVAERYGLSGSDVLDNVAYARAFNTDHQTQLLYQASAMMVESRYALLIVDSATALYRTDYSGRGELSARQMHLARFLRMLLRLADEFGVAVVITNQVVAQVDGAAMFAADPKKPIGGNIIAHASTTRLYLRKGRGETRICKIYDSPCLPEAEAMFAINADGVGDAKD
Method: The binding of RAD51i to RAD51 was examined using a ProteOn XPR36 SPR Protein Interaction Array System (Bio-Rad, Hercules, CA, USA) at 25 °C. ProteOn GLH sensor chips were preconditioned with two 10 s pulses of 50 mM NaOH, 100 mM HCl, and 0.5% SDS followed by the system equilibration with the running buffer (20 mM sodium phosphate, 150 mM NaCl, and 0.005% Tween 20, pH 7.4). The surface of a GLH sensorchip was subsequently activated with a 1:100 dilution of a 1:1 mixture of 0.2 M EDC and 0.05 M Sulfo-NHS. Purified HsRAD51 was diluted to 500 µg/mL in 10 mM sodium acetate, pH 5.5, and injected immediately after chip activation across the ligand flow channels at 30 µL/min for 5 min. Unreacted protein was washed out, and the excess of unreacted ester groups on the sensor surface was capped by an injection of 1 M ethanolamine-HCl, pH 8.0, at 5 µL/min for 5 min. A reference surface to correct for nonspecific binding was similarly created by immobilizing an IgG b12 anti-HIV-1 gp120 antibody (IgG b12 anti-HIV-1 gp120; was obtained through the NIH AIDS Reagent Program, Division of AIDS, NIAID, NIH: Anti-HIV-1 gp120 Monoclonal (IgG1 b12) from Drs. Dennis Burton and Carlos Barbas). Serial dilutions of the compounds were prepared in the running buffer supplemented with 8% DMSO and injected at a flow rate of 100 μL/min for a 1 min association phase, followed by a 5 min dissociation phase using the “one-shot kinetics” functionality of the ProteOn instrument. Data were analyzed with ProteOn Manager Software version 3.0 (Bio-Rad; Hercules, CA, USA). The responses from the reference flow cell were subtracted to account for the non-specific binding and injection artifacts. Experiments were repeated at least three times. The equilibrium dissociation constants (KD) for the interactions were calculated in ProteOn Manager Version 3.1.0.6 (Bio-Rad; Hercules, CA, USA) using the equilibrium analysis function.

[3] = test system: HR in U-2 OS DR-GFP cells; experiment: Canonical DR-GFP assay, inhibition of HR; type: cell-based; conditions: Homo sapiens, U2OS
HsRAD51 [4] = target: T1, HsRAD51; set-up: method as in PMID 22380680; conditions: earlier work; cited from earlier work
[5] = test system: RAD51 foci in U-2 OS IndDR-GFP cells; set-up: method as in PMID 24971740; conditions: earlier work; cited from earlier work
MDA-MB-231 cells = experiment: Cell viability assay (Guava ViaCount flow cytometry), MDA-MB-231; type: cell-based, human; conditions: Homo sapiens
Method: (§1) For all cell viability experiments, except experiments involving MMS treatment, cells were seeded into the media containing indicated concentrations of tested compounds or corresponding amounts of DMSO in controls. The concentration of DMSO in media was 0.1%. MDA-MB-231 cells were seeded into 24-well plates at 3.5 × 10^4 cells/well for cells for a 4-day treatment or at 5000 cells/well for a 10-day treatment. MCF 10A cells were seeded into 24-well plates at 1.5 × 10^4 cells/well for a 4-day treatment or at 500 cells/well for a 10-day treatment. In the case of 10-day treatments, the media with compounds were renewed twice on the 4th and the 7th days of treatments. After completion of the treatments, cells were harvested, and their viability was determined by flow cytometry with Guava ViaCount reagent (Luminex; Austin, TX USA). Data were analyzed using the Guava ViaCount software (Millipore; Burlington, VT, USA). The IC50 values were calculated using the GraphPad Prism 5 software (San Diego, CA, USA).

MCF 10A cells = experiment: Cell viability assay (Guava ViaCount flow cytometry), MCF 10A; type: cell-based, human; conditions: 4-day treatment
Method: as §1

Solubility in DMSO = type: physicochemical; conditions: organic solvent or mixture; in 100% DMSO; read-out: Maximal soluble concentration

IC50 [1]: 0.72 ± 0.07 µM
IC50 (MDA-MB-231 cells; MDA-MB-231, 96 h, MDA-MB-231, 4-day treatment, read-out: IC50 of cell viability): 1.1 µM
Kd (HsRAD51 [2]): 1.4 ± 0.6 µM
SMILES: O=c1nc(/C=C/c2cccnc2)n(Cc2ccc(I)cc2)c2ccccc12 [p-I-B02-iso]
Times lower sensitivity of MCF 10A compared with MDA-MB-231 (MCF 10A cells; ratio of IC50): approximately 3
IC50 (MCF 10A cells; Homo sapiens, 96 h, MCF 10A): 2.7 µM

IC50 [1]: 0.8 ± 0.1 µM
solubility (Solubility in DMSO): 500 µM (≈ 209 µg/mL)
SMILES: O=c1nc(/C=C/c2cccnc2)n(Cc2ccc(Br)cc2)c2ccccc12 [p-Br-B02-iso]

IC50 (MDA-MB-231 cells; MDA-MB-231, 240 h, MDA-MB-231, 10-day treatment, olaparib only (DMSO), read-out: IC50 of olaparib, cell viability): 8.6 µM
IC50 (MDA-MB-231 cells; MDA-MB-231, 240 h, MDA-MB-231 transfected with antiRAD51 siRNA_A, 10 days olaparib, read-out: IC50 of olaparib, cell viability): 3.2 µM
IC50 (MDA-MB-231 cells; MDA-MB-231, 240 h, MDA-MB-231 transfected with scrambled siRNA, 10 days olaparib, read-out: IC50 of olaparib, cell viability): 6.3 µM
SMILES: O=C(c1cc(Cc2n[nH]c(=O)c3ccccc23)ccc1F)N1CCN(C(=O)C2CC2)CC1 [olaparib, reference compound]

Continued, molecule first:

SMILES: O=c1nc(/C=C/c2cccnc2)n(Cc2ccccc2Cl)c2ccccc12 [o-Cl-B02-iso]
IC50 [1]: 5.56 ± 0.49 µM

SMILES: O=c1nc(/C=C/c2cccnc2)n(Cc2cccc(Br)c2)c2ccccc12 [m-Br-B02-iso]
IC50 [1]: 0.9 ± 0.18 µM
Kd (HsRAD51 [2]): 8.4 ± 1.8 µM

SMILES: O=c1c2ccccc2nc(/C=C/c2cccnc2)n1Cc1ccccc1 [B02]
IC50 [1]: 17.7 ± 3.89 µM
IC50 [3]: 17.9 ± 3.5 µM
Binding to RAD51 in vitro by SPR (HsRAD51 [4]): binds to RAD51 directly in vitro
RAD51 foci formation induced by cisplatin [5]: disrupts RAD51 foci formation

SMILES: O=c1nc(/C=C/c2cccnc2)n(Cc2cccc(I)c2)c2ccccc12 [m-I-B02-iso]
IC50 [1]: 0.86 ± 0.02 µM

SMILES: O=c1nc(/C=C/c2cccnc2)n(Cc2ccccc2Br)c2ccccc12 [o-Br-B02-iso]
IC50 [1]: 4.6 ± 1.28 µM
